The source of these data is patent publication US20180194799A1, “BETUIN DERIVATIVES FOR PREVENTING OR TREATING HIV INFECTIONS” (GLAXOSMITHKLINE INTELLECTUAL PROPERTY (NO.2) LIMITED, priority 2015, published 2018).

By EC50 is commonly meant the concentration giving half of the maximal effect. Usually IC50 stands for the point on the concentration scale where inhibition reaches its midpoint.

Test [1] concerns NL4-3 wt. Briefly: MT4 Cell Antiviral Assay, NL4-3 wt. Particulars: Human immunodeficiency virus 1, NL43, 120 h; HIV MT4 Antiviral Cell Assay of Example 17, 5 days incubation. The test is classed as cell-based, HIV-1.
Test [2] relates to V370A. Kind of test: MT4 Cell Antiviral Assay, V370A. The test is classed as cell-based, HIV-1. Particulars: Human immunodeficiency virus 1, MT4, 120 h, read-out: EC50 V370A (nM).
Test [3] relates to HIV-1 (strain IIIB). Kind of test: MT4 Cell Antiviral Assay (general statements and standard). The test is classed as cell-based. The conditions noted are these: Human immunodeficiency virus 1, IIIB; control and standard in every assay, propidium iodide readout, MT4 cells; read-out: expected range of IC50 values. As for the experimental part: Antiviral HIV activity and compound-induced cytotoxicity were measured in parallel by means of a propidium iodide based procedure in the human T-cell lymphotropic virus transformed cell line MT4. Aliquots of the test compounds were serially diluted in medium (RPMI 1640, 10% fetal calf serum (FCS), and gentamycin) in 96-well plates (Costar 3598) using a Cetus Pro/Pette. Exponentially growing MT4 cells were harvested and centrifuged at 1000 rpm for 10 min in a Jouan centrifuge (model CR 4 12). Cell pellets were resuspended in fresh medium (RPMI 1640, 20% FCS, 20% IL-2, and gentamycin) to a density of 5×10^5 cells/ml. Cell aliquots were infected by the addition of HIV-1 (strain IIIB) diluted to give a viral multiplicity of infection of 100×TCID50. […]
For propidium iodide readout, 27 μl of 5% Nonidet-40 was added to each well of the incubation plate. […]
For MTS readout, 20 μl CellTiter 96 AQ One Solution reagent (Promega #G3582) was added to each well. At 75 minutes following the addition of MTS reagent, absorbance was read at 492 nm using a Tecan Sunrise 96-well plate reader. […]
For each assay plate, the results (relative fluorescence units, rfU, or OD values) of wells containing uninfected cells or infected cells with no compound were averaged, respectively. […] Percent of cells remaining is determined by the following formula: […]

The subject of test [4] is HIV. Particulars: cited from earlier work.

Where a name gives a salt, the structure may show the parent alone.

As to `COCC(=O)N(CC1CC1)C[C@H](O)[C@@]12CC[C@]3(C)[C@H](CC[C@@H]4[C@@]5(C)CC=C(c6ccc(C(=O)O)cc6)C(C)(C)C5CC[C@]43C)C1=C(C(C)C)C(=O)C2` (stereo in doubt) [Example 2, 4-((3aR,5aR,5bR,7aR,11aS,11bR,13aS)-3a-((R)-2-(N-(cyclopropylmethyl)-2-methoxyacetamido)-1-hydroxyethyl)-1-isopropyl-5a,5b,8,8,11a-pentamethyl-2-oxo-3,3a,4,5,5a,5b,6,7,7a,8,11,11a,11b,12,13,13a-hexadecahydro-2H-cyclopenta[a]chrysen-9-yl)benzoic acid], the EC50 came to 15.5 nM in test [1] and 389 nM in test [2].

Consider `CC(C)C1=C2[C@H]3CC[C@@H]4[C@@]5(C)CC=C(c6ccc(C(=O)O)cc6)C(C)(C)C5CC[C@@]4(C)[C@]3(C)CC[C@@]2([C@@H](O)CN(CC2CC2)C(=O)CN2CCCC2)CC1=O` (stereo in doubt) [Example 3, 4-((3aR,5aR,5bR,7aR,11aS,11bR,13aS)-3a-((R)-2-(N-(cyclopropylmethyl)-2-(pyrrolidin-1-yl)acetamido)-1-hydroxyethyl)-1-isopropyl-5a,5b,8,8,11a-pentamethyl-2-oxo-3,3a,4,5,5a,5b,6,7,7a,8,11,11a,11b,12,13,13a-hexadecahydro-2H-cyclopenta[a]chrysen-9-yl)benzoic acid hydrochloride], for which the concentration giving a half-maximal response (EC50) is 2.8 nM in test [1] and 6.5 nM in test [2].

On to `CC(C)C1=C2[C@H]3CC[C@@H]4[C@@]5(C)CC=C(c6ccc(C(=O)O)cc6)C(C)(C)C5CC[C@@]4(C)[C@]3(C)CC[C@@]2([C@@H](O)CN(CC2CC2)C(=O)CN2CCCC2=O)CC1=O` (stereo in doubt) [Example 4, 4-((3aR,5aR,5bR,7aR,11aS,11bR,13aS)-3a-((R)-2-(N-(cyclopropylmethyl)-2-(2-oxopyrrolidin-1-yl)acetamido)-1-hydroxyethyl)-1-isopropyl-5a,5b,8,8,11a-pentamethyl-2-oxo-3,3a,4,5,5a,5b,6,7,7a,8,11,11a,11b,12,13,13a-hexadecahydro-2H-cyclopenta[a]chrysen-9-yl)benzoic acid], for which the concentration giving a half-maximal response (EC50) in test [1] came to 10.2 nM; in test [2], 1020 nM.

`CC(C)C1=C2[C@H]3CC[C@@H]4[C@@]5(C)CC=C(c6ccc(C(=O)O)cc6)C(C)(C)C5CC[C@@]4(C)[C@]3(C)CC[C@@]2([C@@H](O)CN(CC2CCC2)C(=O)CN2CCCC2)CC1=O` (stereo in doubt) [Example 5, 4-((3aR,5aR,5bR,7aR,11aS,11bR,13aS)-3a-((R)-2-(N-(cyclobutylmethyl)-2-(pyrrolidin-1-yl)acetamido)-1-hydroxyethyl)-1-isopropyl-5a,5b,8,8,11a-pentamethyl-2-oxo-3,3a,4,5,5a,5b,6,7,7a,8,11,11a,11b,12,13,13a-hexadecahydro-2H-cyclopenta[a]chrysen-9-yl)benzoic acid hydrochloride]: the EC50 was determined as 35.4 nM in test [1] and 3.8 nM in test [2].

On to `CC(C)C1=C2[C@H]3CC[C@@H]4[C@@]5(C)CC=C(c6ccc(C(=O)O)cc6)C(C)(C)C5CC[C@@]4(C)[C@]3(C)CC[C@@]2([C@@H](O)CN(CC2CCC2)C(=O)CN(C)C)CC1=O` (stereo in doubt) [Example 6, 4-((3aR,5aR,5bR,7aR,11aS,11bR,13aS)-3a-((R)-2-(N-(cyclobutylmethyl)-2-(dimethylamino)acetamido)-1-hydroxyethyl)-1-isopropyl-5a,5b,8,8,11a-pentamethyl-2-oxo-3,3a,4,5,5a,5b,6,7,7a,8,11,11a,11b,12,13,13a-hexadecahydro-2H-cyclopenta[a]chrysen-9-yl)benzoic acid hydrochloride], for which the values for the EC50 in test [1] and in test [2] were 3 nM and 8.9 nM, respectively.

Consider `Cc1cn([C@H]2C[C@H](N=[N+]=[N-])[C@@H](CO)O2)c(=O)[nH]c1=O` [3′-azido-3′-deoxythymidine], for which the half-maximal inhibitory concentration (IC50) in test [3] was in the range of 40 to 120 nM.

As for `C=C(C)[C@@H]1CC[C@]2(C(=O)O)CC[C@]3(C)[C@H](CC[C@@H]4[C@@]5(C)CC[C@H](OC(=O)CC(C)(C)C(=O)O)C(C)(C)[C@@H]5CC[C@]43C)[C@@H]12` [Bevirimat], in test [4] (patients with trough levels >=20 μg/mL and without baseline Gag polymorphisms at Q369, V370 or T371), the “HIV viral load reduction (mean)” value is 1.3 log10/mL. Also, the “viral load reduction versus patients without Gag polymorphisms” value in test [4] (users with Gag polymorphisms at Q369, V370 or T371) is recorded as “significantly lower load reductions”.

On to `CC(C)C1=C2[C@H]3CC[C@@H]4[C@@]5(C)CC=C(c6ccc(C(=O)O)cc6)C(C)(C)[C@@H]5CC[C@@]4(C)[C@]3(C)CC[C@@]2([C@@H](O)CN(CC2CC2)C(=O)CN(C)C)CC1=O` [Example 1, 4-((3aR,5aR,5bR,7aR,11aS,11bR,13aS)-3a-((R)-2-(N-(cyclopropylmethyl)-2-(dimethylamino)acetamido)-1-hydroxyethyl)-1-isopropyl-5a,5b,8,8,11a-pentamethyl-2-oxo-3,3a,4,5,5a,5b,6,7,7a,8,11,11a,11b,12,13,13a-hexadecahydro-2H-cyclopenta[a]chrysen-9-yl)benzoic acid], for which the EC50 in test [1] amounted to 3.7 nM; in test [2], 17 nM.

`CC(C)C1=C2[C@H]3CC[C@@H]4[C@@]5(C)CC=C(c6ccc(C(=O)O)cc6)C(C)(C)[C@@H]5CC[C@@]4(C)[C@]3(C)CC[C@@]2([C@@H](O)CNCC2CC2)CC1=O` [Example 9, 4-((3aR,5aR,5bR,7aR,11aS,11bR,13aS)-3a-((R)-2-((cyclopropylmethyl)amino)-1-hydroxyethyl)-1-isopropyl-5a,5b,8,8,11a-pentamethyl-2-oxo-3,3a,4,5,5a,5b,6,7,7a,8,11,11a,11b,12,13,13a-hexadecahydro-2H-cyclopenta[a]chrysen-9-yl)benzoic acid hydrochloride]: the EC50 in test [1] amounted to 69.2 nM; in test [2] it was 10000 nM.

On to `CC(C)C1=C2[C@H]3CC[C@@H]4[C@@]5(C)CC=C(c6ccc(C(=O)O)cc6)C(C)(C)[C@@H]5CC[C@@]4(C)[C@]3(C)CC[C@@]2([C@@H](O)CN(CCN(C)C)CC2CC2)CC1=O` [Example 10, 4-((3aR,5aR,5bR,7aR,11aS,11bR,13aS)-3a-((R)-2-((cyclopropylmethyl)(2-(dimethylamino)ethyl)amino)-1-hydroxyethyl)-1-isopropyl-5a,5b,8,8,11a-pentamethyl-2-oxo-3,3a,4,5,5a,5b,6,7,7a,8,11,11a,11b,12,13,13a-hexadecahydro-2H-cyclopenta[a]chrysen-9-yl)benzoic acid hydrochloride], for which the EC50 in test [1] was found to be 7.8 nM; in test [2] it was 7.9 nM.

`CC(=O)N(CC1CC1)C[C@H](O)[C@@]12CC[C@]3(C)[C@H](CC[C@@H]4[C@@]5(C)CC=C(c6ccc(C(=O)O)cc6)C(C)(C)[C@@H]5CC[C@]43C)C1=C(C(C)C)C(=O)C2` [Example 11, 4-((3aR,5aR,5bR,7aR,11aS,11bR,13aS)-3a-((R)-2-(N-(cyclopropylmethyl)acetamido)-1-hydroxyethyl)-1-isopropyl-5a,5b,8,8,11a-pentamethyl-2-oxo-3,3a,4,5,5a,5b,6,7,7a,8,11,11a,11b,12,13,13a-hexadecahydro-2H-cyclopenta[a]chrysen-9-yl)benzoic acid]: the half-maximal effective concentration (EC50) in test [1] is 39.8 nM; in test [2], 24.5 nM.

With `COCC(=O)N(CC1CC1)C[C@H](O)[C@@]12CC[C@]3(C)[C@H](CC[C@@H]4[C@@]5(C)CC=C(c6cn(CC(=O)O)nn6)C(C)(C)[C@@H]5CC[C@]43C)C1=C(C(C)C)C(=O)C2` [Example 12, 2-(4-((3aR,5aR,5bR,7aR,11aS,11bR,13aS)-3a-((R)-2-(N-(cyclopropylmethyl)-2-methoxyacetamido)-1-hydroxyethyl)-1-isopropyl-5a,5b,8,8,11a-pentamethyl-2-oxo-3,3a,4,5,5a,5b,6,7,7a,8,11,11a,11b,12,13,13a-hexadecahydro-2H-cyclopenta[a]chrysen-9-yl)-1H-1,2,3-triazol-1-yl)acetic acid hydrochloride], the 50% effective concentration (EC50) in test [1] was 20400 nM; in test [2], 15500 nM.
